Reference: PMC8359193, “Summary of reference chemicals evaluated by the fish short‐term reproduction assay, OECD TG229, using Japanese Medaka, Oryzias latipes” (Journal of Applied Toxicology, 2021)
“Also recorded” adds a separate entry of the source. Read-outs that look alike come from different tables or passages of the source.

Columns and labels:
medaka ARβ (mARβ) = medaka ARβ (mARβ) (Oryzias latipes, UniProt D1MV73); experiment: Medaka ARβ reporter gene assay (RGA), agonist assay, HepG2 cells; format: cell-based, Japanese medaka (Oryzias latipes); conditions: mARβ RGA agonist assay; ND = no significant response even at the highest assay concentration (in parentheses)
medaka ARβ (mARβ), sequence (D1MV73 entry or part of it): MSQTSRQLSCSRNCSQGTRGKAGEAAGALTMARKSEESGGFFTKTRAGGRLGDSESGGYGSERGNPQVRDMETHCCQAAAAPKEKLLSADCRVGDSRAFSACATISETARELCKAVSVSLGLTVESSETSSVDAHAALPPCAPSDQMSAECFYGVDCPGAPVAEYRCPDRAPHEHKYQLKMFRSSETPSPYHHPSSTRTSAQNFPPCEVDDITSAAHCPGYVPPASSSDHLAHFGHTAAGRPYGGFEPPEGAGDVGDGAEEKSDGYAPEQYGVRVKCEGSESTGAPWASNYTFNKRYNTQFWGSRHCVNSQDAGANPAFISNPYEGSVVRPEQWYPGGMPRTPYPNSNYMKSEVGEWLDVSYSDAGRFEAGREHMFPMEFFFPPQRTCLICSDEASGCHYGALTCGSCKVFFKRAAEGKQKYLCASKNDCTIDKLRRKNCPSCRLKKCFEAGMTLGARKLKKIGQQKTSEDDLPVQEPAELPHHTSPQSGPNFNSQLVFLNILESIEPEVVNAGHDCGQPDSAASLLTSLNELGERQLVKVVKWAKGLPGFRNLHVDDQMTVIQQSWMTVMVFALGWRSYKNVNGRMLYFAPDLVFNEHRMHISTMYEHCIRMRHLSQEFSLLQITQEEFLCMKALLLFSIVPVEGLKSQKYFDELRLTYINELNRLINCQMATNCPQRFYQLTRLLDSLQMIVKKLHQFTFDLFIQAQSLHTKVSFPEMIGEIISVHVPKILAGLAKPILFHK
Experimental: To support interpretation of the biological effects observed in the FSTRA studies, in vitro RGAs using medaka Esr1 (mEsr1) and medaka ARβ (mARβ) were performed for the 16 test chemicals.
For the assays, human liver cancer cell line, HepG2, was used as the host cells, and mARβ/pcDNA3.1, MMTV‐Luc, and pRL‐TK‐Rlu were used as mARβ expression vector, reporter vector, and internal control vector, respectively.
(§1) Effect concentrations, that is, EC50 (a half maximal effective concentration) in the agonist assay and IC50 (a half maximal inhibitory concentration) in the antagonist assay, were estimated by nonlinear curve fitting (e.g., three parameters logistic regression curve) using GraphPad Prism (GraphPad Software Inc., La Jolla, CA, USA).

medaka Esr1 (mEsr1) = molecular target: T1, medaka Esr1 (mEsr1) (Oryzias latipes, UniProt P50241); experiment: Medaka Esr1 reporter gene assay (RGA), antagonist assay with 1 nM E2, HEK293 cells; format: cell-based, Japanese medaka (Oryzias latipes)
T1 construct: expressed in transfected cells; host or cells: HEK293 (human embryonic kidney cells), transient transfection with FuGENE HD
T1 sequence (P50241 1-620): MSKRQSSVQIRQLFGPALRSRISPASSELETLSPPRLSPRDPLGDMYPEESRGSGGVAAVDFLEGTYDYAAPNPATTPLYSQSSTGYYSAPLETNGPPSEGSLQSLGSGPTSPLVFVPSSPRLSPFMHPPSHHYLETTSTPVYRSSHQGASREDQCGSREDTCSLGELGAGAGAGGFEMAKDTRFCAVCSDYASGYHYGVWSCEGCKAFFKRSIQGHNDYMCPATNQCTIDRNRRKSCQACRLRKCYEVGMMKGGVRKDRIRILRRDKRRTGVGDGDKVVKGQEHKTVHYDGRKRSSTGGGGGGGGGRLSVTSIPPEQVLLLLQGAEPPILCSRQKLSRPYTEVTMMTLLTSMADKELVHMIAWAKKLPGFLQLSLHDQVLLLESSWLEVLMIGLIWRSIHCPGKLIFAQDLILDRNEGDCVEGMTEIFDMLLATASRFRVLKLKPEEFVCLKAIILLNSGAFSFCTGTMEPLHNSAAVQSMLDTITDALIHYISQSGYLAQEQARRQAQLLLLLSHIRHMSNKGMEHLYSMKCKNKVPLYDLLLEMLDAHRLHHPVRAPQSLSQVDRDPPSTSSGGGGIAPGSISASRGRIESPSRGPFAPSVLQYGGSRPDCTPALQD
Experimental: To support interpretation of the biological effects observed in the FSTRA studies, in vitro RGAs using medaka Esr1 (mEsr1) and medaka ARβ (mARβ) were performed for the 16 test chemicals. In the present study, Esr1 and ARβ, which are ancestral subtypes among Esrs and ARs in Japanese medaka, were selected based on the phylogenetical analyses of Esr and AR with each receptor RGAs (Ogino et al., [2016], [2018]; Tohyama et al., [2015]).
The mEsr1 RGA consisting of agonist and antagonist assays were performed according to the methods previously reported (Katsu et al., [2010]; Lange et al., [2012]; Miyagawa et al., [2014]). Briefly, human embryonic kidney cells 293 (HEK293), precultured, were seeded in 96‐well plates at 15,000 cells/well with 200 μl of culture medium, phenol‐red‐free Dulbecco's Modified Eagle's medium (ThermoFisher Scientific K.K., Tokyo, Japan) supplemented with 2‐mM L‐glutamine and 10% charcoal/dextran‐treated fetal bovine serum (Hyclone, UT, USA), and then incubated for 24 h in 5% CO2 at 37°C. After the 24‐h incubation, 20 μl of test medium containing 40 ng of medaka Esr1/pcDNA3.1, 80 ng of ERE‐TK‐Luc, and 20 ng of pRL‐TK‐Rlu and 1.2 μL of transfection reagent FuGENE HD (Promega, WI, USA) were added into each well. The assay plates were incubated for another 4 h in order to transfect the three vectors into the HEK293 cells. After the vectors were successfully transfected, in agonist assay, 24 μl of concentrated test chemical solution was applied to the test medium in the plate wells. […] After chemical treatment for 40 h, luciferase activity of the cells was measured, and the promoter activity was calculated as firefly (Photinus pyralis)‐/sea pansy (Renilla reniformis)‐luciferase activity in each well. The luciferase activities were quantified by a chemiluminescence assay with Dual‐Luciferase Reporter Assay System (Promega) in accordance with the manufacturer's instructions, and luminescence intensity of firefly and sea pansy luciferin was measured using a luminometer, TriStar LB941 (Berthold Technology, Oak Ridge, TN, USA).
as §1

[1] = test system: Japanese medaka (Oryzias latipes); experiment: Fish short-term reproduction assay (FSTRA, OECD TG229), 21-day flow-through exposure; conditions: for Fertility rate (%) / Mortality (%) Female / Mortality (%) Male / Number of fertilized eggs / Number of total eggs / SSC Female / SSC Male / VTG (ng/mg of liver) Female / VTG (ng/mg of liver) Male: 21 days; for GSI Female / GSI Male / HSI Female / HSI Male / Length Female / Length Male / Weight Female / Weight Male: at completion of exposure; for effect on fecundity (number of total eggs), in words: within the test concentrations
Experimental: The experimental studies on the FSTRA for the 16 chemicals were conducted in two laboratories in Japan, the National Institute for Environmental Studies (NIES, Lab‐1) and the Institute of Environmental Ecology, IDEA Consultants Inc. (Lab‐2), in accordance with OECD TG229 (OECD, [2012a]) (Table 1).
The NIES‐R strain of Japanese medaka (O. latipes), one of the orange‐red varieties, was used in all the 16 chemical studies. For the studies, healthy and mature male and female medakas at 16 ± 2 weeks old were selected from a single‐stock population, which were bred within the test facilities. The test fish were maintained in conditions similar to the assay for at least 7 days, and spawning status was checked during the acclimation period. On the day the chemical exposure commenced, to ensure balanced distribution of test fish between the treatment groups for the reproductive status of the fish, the replicate vessels (fish tanks), with each containing three male and female medaka, were distributed to each treatment and control group, for example, by a randomized block design based on the number of fertilized eggs laid in the last 5–7 days during the acclimation, in each assay.
The water solubility of the test chemical was also taken into consideration when deciding the highest test concentration. To set the lower concentrations, a spacing factor ranging between two and five was used. All assays included a dilution water control (DWC).
Test solutions at the selected concentrations were prepared by diluting a stock solution, which was prepared by an adequate method depending on the physicochemical properties of the test chemicals, for example, by simply mixing the test chemical in dilution water by stirring and/or sonicating for an appropriate time or by using a solid–liquid saturator. In the two laboratories, flow‐through exposure systems, in which a series of test solutions at the target concentrations can be continuously prepared and delivered to test vessels at controlled flow rates (Haselman et al., [2016]; Watanabe et al., [2017]), were used for the exposure experiments.
In the FSTRA, three mature adult males and females in a test vessel were exposed together to the test chemicals in flow‐through condition for 3 weeks. In all the assays, each treatment group, including the DWC group, contained four replicate tanks. During the exposure period, the fish were fed a sufficient amount of live brine shrimp nauplii (newly hatched Artemia sp.) for daily spawning ad libitum. Fecal material in the tanks was appropriately removed by siphoning after feeding. Water temperature of test solutions was recorded for at least one vessel in each treatment and control group every day and for all vessels at least once a week. Furthermore, dissolved oxygen and pH of test solutions were measured for all test vessels at least once a week. Mortality and abnormal behavior and appearance in the fish exposed to test chemicals were daily observed, and any fish that died were removed from the tank as soon as possible. To assess the reproductive status, all eggs females spawned were collected every day. At the completion of the chemical exposure, surviving fish in each tank were sampled.
The eggs females released on the bottom of the tank were collected by siphoning, and the egg clutches still on female abdomen were carefully picked from the body of the females captured using a small net. All the eggs collected were microscopically observed and separately counted for fertilized and unfertilized.

Japanese medaka = conditions: long-term exposure, MMT; ref Flynn et al. (2017); cited from earlier work
[2] = hepatic VTG, 21-day exposure, measured conc.
[3] = female, measured conc. 20.6 μg/L
[4] = female, measured conc. 44.9 μg/L

## C[C@]12CC(=O)[C@H]3[C@@H](CCC4=CC(=O)CC[C@@]43C)[C@@H]1CC[C@@H]2O [11KT, 11‐ketotestosterone]
Medaka ARβ (mARβ)
  EC50: 0.0027 µM
Medaka Esr1 (mEsr1); mEsr1 RGA antagonist assay, 1 nM E2-mediated transactivation, ND = no significant response even at the highest assay concentration (in parentheses), read-out: Antagonist assay, IC50, Medaka Esr1
  IC50: > 100 µM

## C[C@]12CC[C@@H]3c4ccc(O)cc4CC[C@H]3[C@@H]1CC[C@@H]2O [E2, 17β‐Estradiol]
[1]; hepatic VTG, 21-day exposure
  LOEC on VTG induction in male (in molarity): 81 pM
[1]; [2]
  LOEC for VTG induction in males: 22.1 ng/L
[1]; in vivo
  LOEC on male VTG induction: times smaller than the LOEC for CMP: more than 8,000 times
  effect on male GSI, in words: significant decreasing
[1]; measured conc. 22.1 ng/L
  Fertility rate (%): 90%
  Mortality (%) Female: 0%
  Mortality (%) Male: 0%
  Number of fertilized eggs: 18
  Number of total eggs: 20 ± 2.9 /female/day
  SSC Female: 0 ± 0
  SSC Male: 109 ± 10
  VTG (ng/mg of liver) Female: 3,420 ± 991 ng/mg of liver
  VTG (ng/mg of liver) Male: 424 ± 379 ng/mg of liver
  GSI Female: 10.3%
  GSI Male: 0.82%
  HSI Female: 4.4%
  HSI Male: 2.0%
  Length Female: 36.8 mm
  Length Male: 36.4 mm
  Weight Female: 573 mg
  Weight Male: 507 mg
[1]; measured conc. 115 ng/L
  Fertility rate (%): 95%
  Mortality (%) Female: 8%
  Mortality (%) Male: 8%
  Number of fertilized eggs: 21
  Number of total eggs: 22 ± 1.5 /female/day
  SSC Female: 0 ± 0
  SSC Male: 112 ± 10
  VTG (ng/mg of liver) Female: 5,500 ± 1,370 ng/mg of liver
  VTG (ng/mg of liver) Male: 13,400 ± 1900 ng/mg of liver
  GSI Female: 11.4%
  GSI Male: 0.67%
  HSI Female: 4.3%
  HSI Male: 2.5%
  Length Female: 35.6 mm
  Length Male: 35.8 mm
  Weight Female: 517 mg
  Weight Male: 512 mg
[1]; measured conc. 553 ng/L
  Fertility rate (%): 85%
  Mortality (%) Female: 17%
  Mortality (%) Male: 8%
  Number of fertilized eggs: 9.4
  Number of total eggs: 13 ± 1.9 /female/day
  SSC Female: 0 ± 0
  SSC Male: 97 ± 14
  VTG (ng/mg of liver) Female: 18,900 ± 5,910 ng/mg of liver
  VTG (ng/mg of liver) Male: 19,900 ± 3,570 ng/mg of liver
  GSI Female: 11.2%
  GSI Male: 0.31%
  HSI Female: 4.4%
  HSI Male: 3.2%
  Length Female: 35.0 mm
  Length Male: 35.0 mm
  Weight Female: 512 mg
  Weight Male: 488 mg
[1]; 21-day exposure
  effect on fecundity (number of total eggs), in words: significant decrease
Japanese medaka
  LOEC on male VTG induction: 28 ng/L

## CCCN(CCOc1c(Cl)cc(Cl)cc1Cl)C(=O)n1ccnc1 [PCL, Prochloraz]
[1]; 21-day exposure
  effect on fertility rate, in words: significant decrease; also recorded: significant reduction
  effect on fecundity (number of total eggs), in words: No effect
[1]; [3]
  GSI Female: 10.2%
  HSI Female: 4.2%
  Length Female: 35.0 mm
  Weight Female: 547 mg
[1]; [4]
  GSI Female: 11.1%
  HSI Female: 4.5%
  Length Female: 36.5 mm
  Weight Female: 591 mg
[1]; [2]
  LOEC for decrease of VTG in females: 44.9 µg/L
[1]; male, measured conc. 20.6 μg/L
  GSI Male: 1.26%
  HSI Male: 1.7%
  Length Male: 34.4 mm
  Weight Male: 408 mg
[1]; male, measured conc. 44.9 μg/L
  GSI Male: 1.16%
  HSI Male: 1.7%
  Length Male: 34.3 mm
  Weight Male: 415 mg
[1]; measured conc. 20.6 μg/L
  Fertility rate (%): 94%
  Mortality (%) Female: 0%
  Mortality (%) Male: 0%
  Number of fertilized eggs: 37
  Number of total eggs: 39 ± 4.5 /female/day
  SSC Female: 0 ± 0
  SSC Male: 103 ± 15
  VTG (ng/mg of liver) Female: 289 ± 57 ng/mg of liver
  VTG (ng/mg of liver) Male: 2.6 ± 2.0 ng/mg of liver
[1]; measured conc. 44.9 μg/L
  Fertility rate (%): 84%
  Mortality (%) Female: 0%
  Mortality (%) Male: 0%
  Number of fertilized eggs: 28
  Number of total eggs: 34 ± 5.5 /female/day
  SSC Female: 0 ± 0
  SSC Male: 93 ± 13
  VTG (ng/mg of liver) Female: 173 ± 53 ng/mg of liver
  VTG (ng/mg of liver) Male: 1.2 ± 1.2 ng/mg of liver
Medaka Esr1 (mEsr1)
  IC50: > 10 µM
